Columns and labels:
[1] = system: Homo sapiens; assay: (§1) Intercompartmental clearance between central and peripheral compartments in solid organ transplant patient exhibiting 57 L/hr creatinine clearance infected with cytomegalovirus at 5 mg/kg, iv bid for 5 days followed by 900 mg of oral valganciclovir dosed twice daily for 16 days dose adjustment for renal function by basal population pharmacokinetic model; assay type: ADME, organism-based; design: dose 5 mg/kg, route oral; conditions: in vivo
[2] = system: Homo sapiens; assay: as §1, with “Central volume of distribution” for “Intercompartmental clearance between central and peripheral compartments”, “final” for “basal”; assay type: ADME, organism-based; design: dose 5 mg/kg, route oral; conditions: in vivo
[3] = system: Homo sapiens; assay: (§2) Clearance in solid organ transplant patient exhibiting […] creatinine clearance infected with cytomegalovirus at 5 mg/kg, iv bid for 5 days followed by 900 mg of oral valganciclovir dosed twice daily for 16 days dose adjustment for renal function by final population pharmacokinetic model; assay type: ADME, organism-based; design: dose 5 mg/kg, route oral; conditions: in vivo
[4] = system: Homo sapiens; assay: (§3) Drug absorption in solid organ transplant patient exhibiting […] creatinine clearance infected with cytomegalovirus assessed as first-order absorption rate constant at 5 mg/kg, iv bid for 5 days followed by 900 mg of oral valganciclovir dosed twice daily for 16 days dose adjustment for renal function; assay type: ADME, organism-based; design: dose 5 mg/kg, route oral; conditions: in vivo
[5] = system: Homo sapiens; assay: as §2, with “Central volume of distribution” for “Clearance”, “basal” for “final”; assay type: ADME, organism-based; design: dose 5 mg/kg, route oral; conditions: in vivo
[6] = system: Homo sapiens; assay: Clearance in solid organ transplant patient exhibiting […] creatinine clearance infected with cytomegalovirus at 5 mg/kg, iv bid for 5 days followed by 900 mg of oral valganciclovir dosed twice daily for 16 days dose adjustment for renal function by basal population pharmacokinetic model; assay type: ADME, organism-based; design: dose 5 mg/kg, route oral; conditions: in vivo
[7] = Bioavailability in solid organ transplant patient exhibiting […] creatinine clearance infected with cytomegalovirus at 5 mg/kg, iv bid for 5 days followed by 900 mg of oral valganciclovir dosed twice daily for 16 days dose adjustment for renal function by final population pharmacokinetic model; assay type: ADME, organism-based; conditions: human, in vivo
[8] = system: Homo sapiens; assay: as §1, with “final” for “basal”; assay type: ADME, organism-based; design: dose 5 mg/kg, route oral; conditions: in vivo
[9] = Bioavailability in solid organ transplant patient exhibiting 57 mL/min creatinine clearance infected with cytomegalovirus at 5 mg/kg, iv bid for 5 days followed by 900 mg of oral valganciclovir dosed twice daily for 16 days dose adjustment for renal function by basal population pharmacokinetic model; conditions: human, in vivo
[10] = system: Homo sapiens; assay: as §3, with “function by basal population pharmacokinetic model” for “function”; assay type: ADME, organism-based; design: dose 5 mg/kg, route oral; conditions: in vivo

CL [1]: 9.65 L/h
Vd [2]: 31.9 L
CL [3]: 7.49 L/h
Ka [4]: 0.895 h⁻¹
Vd [5]: 32 L
CL [6]: 6.34 L/h
bioavailability [7]: 82.5%
CL [8]: 10.2 L/h
bioavailability [9]: 76%
Ka [10]: 0.971 h⁻¹
Compound: Nc1nc(O)c2ncn(COC(CO)CO)c2n1 [GANCICLOVIR]
